From patent publication US12303474B2, “S-enantiomerically enriched compositions of beta blockers for treating amyotrophic lateral sclerosis” (priority 2013, dated 2025)
Read-outs that look alike come from different tables or passages of the source.

How the values were obtained:
[1] = system: G93A SOD1 B6SJL hybrid (G93A) model; details: for Heart / gastrocnemius: end of study;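 for HR survival (FIG. 14): dosing began after ALS onset in G93A SOD1 mice, with survival as the endpoint, defined humanely as the animal failing to regain upright posture within 30 s when placed sideways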;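 for HR survival (FIG. 16): dosing began after ALS onset in G93A SOD1 mice, with survival as the endpoint, defined humanely as the animal failing to regain upright posture within 30 s when placed sideways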
Method: (§1) Transgenic mice over-expressing a high copy number (25 copies) of mutated human SOD1 gene with a G93A point mutation, i.e., B6SJL-TgN [SOD1-G93A]1 Gur (G1H-G93A transgenic mice, JR2726; Hemizygote) (Gurney M E, et al., Science, 264, 1772-1775, 1994) (“G93A SOD1 B6SJL hybrid (G93A) model”), were used.
To study the effect of the test compounds on skeletal muscle atrophy, the skeletal muscle mass were determined at the end of the study.
The number of all mice in the population is indicated as “n” in at the bottom of FIGS. 21A-21C.
The number of all mice in the population is indicated as “n” in at the bottom of FIGS. 20D-20F.
The number of all mice in the population is indicated as “n” in at the bottom of FIGS. 21G-21I.

[2] = system: G93A SOD1 B6SJL hybrid (G93A) model; assay: Body weight and body composition (lean mass, fat mass; NMR scans) in G93A SOD1 transgenic mice; type: in vivo; details: for Average Δ fat mass / Average Δ lean mass / Average Δ body weight: per day alive after disease onset
Source text: as §1
[…] […] There were 16 mice in the S-oxprenolol group.
The primary endpoint was survival, humanely defined as the ability of the animal to right itself in 30 seconds after being laid on its side. Secondary endpoints were body weight, body composition, spontaneous activity and food intake. Body weight of the animals was assessed weekly until onset of disease. Additionally, body composition (fat mass and lean body mass) was assessed using NMR scans (EchoMRI-100, Echo Medical Systems, Houston, USA) every 4 days. After onset of disease, body weight and body composition were assessed every two days until the end of the study. All personal handling the animals was strictly blinded to the randomized treatment allocation.
To study the effect of S-oxprenolol on body weight, body weight was monitored over time.
To study the effect of the test compounds on lean body mass, lean mass was determined at the end of the study.
To study the effect of the test compounds on fat mass, the fat mass were determined at the end of the study.
To study the effect of S-oxprenolol on body weight, body weight was monitored over time. […] The number of all mice in the population is indicated as “n” in at the bottom of FIGS. 20A-20C.
To study the effect of the test compounds on lean body mass, lean mass was determined at the end of the study. […] The number of all mice in the population is indicated as “n” in at the bottom of FIGS. 20D-20F.
To study the effect of the test compounds on fat mass, the fat mass were determined at the end of the study. […] The number of all mice in the population is indicated as “n” in at the bottom of FIGS. 20G-20I.

[3] = system: G93A SOD1 B6SJL hybrid (G93A) model; details: for HR survival (FIG. 14): all mice; for HR survival (FIG. 16): female mice; for HR survival (FIG. 15): male mice;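 for HR survival (FIG. 14): dosing began after ALS onset in G93A SOD1 mice, with survival as the endpoint, defined humanely as the animal failing to regain upright posture within 30 s when placed sideways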;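 for HR survival (FIG. 16): dosing began after ALS onset in G93A SOD1 mice, with survival as the endpoint, defined humanely as the animal failing to regain upright posture within 30 s when placed sideways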
Source text: To study the effect of S-oxprenolol on survival, survival was monitored over time.

[4] = system: G93A SOD1 B6SJL hybrid (G93A) model; assay: Disease progression score (JAX SOP) in G93A SOD1 transgenic mice
Source text: The disease progression score is based on the JAX SOP (Ludolph A C, Bendotti C, Blaugrund E, Hengerer B, Loffler J P, Martin J, Meininger V, Meyer T, Moussaoui S, Robberecht W, Scott S, Silani V, Van Den Berg L H (ENMC Group For The Establishment Of Guidelines For The Conduct Of Preclinical And Proof Of Concept Studies In ALS/MND Models). 2007, which is incorporated by reference).

[5] = 20 mg/kg/day vs. S-Oxprenolol (20)

C=CCOc1ccccc1OCC(O)CNC(C)C (racemic) [oxprenolol, 1-[2-(allyloxy)phenoxy]-3-(isopropylamino)propan-2-ol]
BAT (brown adipose tissue) ([1]; all mice, 20 mg/kg/d): 40.6 ± 2.8 mg
EDL (extensor digitorum longus) ([1]; all mice, 20 mg/kg/d): 7.24 ± 0.41 mg
soleus ([1]; all mice, 20 mg/kg/d): 4.99 ± 0.36 mg
Heart ([1]; all mice, 20 mg/kg/d): 100.2 ± 3.2 mg
gastrocnemius ([1]; all mice, 20 mg/kg/d): 52.2 ± 2.3 mg
BAT (brown adipose tissue) ([1]; female mice, 20 mg/kg/d): 35.2 ± 4.1 mg
EDL (extensor digitorum longus) ([1]; female mice, 20 mg/kg/d): 6.97 ± 0.36 mg
soleus ([1]; female mice, 20 mg/kg/d): 4.76 ± 0.52 mg
Heart ([1]; female mice, 20 mg/kg/d): 89.5 ± 2.4 mg
gastrocnemius ([1]; female mice, 20 mg/kg/d): 49.5 ± 2.1 mg
BAT (brown adipose tissue) ([1]; male mice, 20 mg/kg/d): 45.7 ± 3.6 mg
EDL (extensor digitorum longus) ([1]; male mice, 20 mg/kg/d): 7.49 ± 0.72 mg
soleus ([1]; male mice, 20 mg/kg/d): 5.21 ± 0.51 mg
Heart ([1]; male mice, 20 mg/kg/d): 110.2 ± 2.9 mg
gastrocnemius ([1]; male mice, 20 mg/kg/d): 54.7 ± 3.9 mg
Δ body weight ([2]; all mice, 20 mg/kg/d): -5.59 ± 0.48 g
Δ fat mass ([2]; all mice, 20 mg/kg/d): -1.49 ± 0.12 g
Δ lean mass ([2]; all mice, 20 mg/kg/d): -4.67 ± 0.42 g
Average Δ fat mass ([2]; all mice, 20 mg/kg/d): -33.1 ± 2.6 mg/day
Average Δ lean mass ([2]; all mice, 20 mg/kg/d): -102.0 ± 10.7 mg/day
Δ body weight ([2]; female mice, 20 mg/kg/d): -5.27 ± 0.61 g
Δ fat mass ([2]; female mice, 20 mg/kg/d): -1.64 ± 0.21 g
Δ lean mass ([2]; female mice, 20 mg/kg/d): -3.76 ± 0.42 g
Average Δ body weight ([2]; female mice, 20 mg/kg/d): -122.5 ± 14.7 mg/day
Average Δ fat mass ([2]; female mice, 20 mg/kg/d): -37.5 ± 3.7 mg/day
Average Δ lean mass ([2]; female mice, 20 mg/kg/d): -85.8 ± 11.6 mg/day
Δ body weight ([2]; male mice, 20 mg/kg/d): -5.94 ± 0.77 g
Δ fat mass ([2]; male mice, 20 mg/kg/d): -1.33 ± 0.13 g
Δ lean mass ([2]; male mice, 20 mg/kg/d): -5.64 ± 0.68 g
Average Δ body weight ([2]; male mice, 20 mg/kg/d): -124.8 ± 20.7 mg/day
Average Δ fat mass ([2]; male mice, 20 mg/kg/d): -28.3 ± 3.1 mg/day
Average Δ lean mass ([2]; male mice, 20 mg/kg/d): -119.4 ± 17.7 mg/day
HR survival (FIG. 14) ([3]; 20 mg/kg/day vs. placebo): 0.66
HR survival (FIG. 16) ([3]; 20 mg/kg/day vs. placebo): 1.03
HR survival (FIG. 15) ([3]; 20 mg/kg/day vs. placebo): 0.38
HR Progression from score 1 to score 2 (FIG. 17) ([4]; 20 mg/kg/day vs. placebo): 0.60
HR Progression from score 1 to score 3 (FIG. 19) ([4]; 20 mg/kg/day vs. placebo): 0.60
HR Progression from score 2 to score 3 (FIG. 18) ([4]; 20 mg/kg/day vs. placebo): 0.77

C=CCOc1ccccc1OC[C@H](O)CNC(C)C [R-oxprenolol, (R)-1-(2-(allyloxy)phenoxy)-3-(isopropylamino)propan-2-ol]
BAT (brown adipose tissue) ([1]; all mice, 10 mg/kg/d): 44.5 ± 3.4 mg
EDL (extensor digitorum longus) ([1]; all mice, 10 mg/kg/d): 6.53 ± 0.47 mg
soleus ([1]; all mice, 10 mg/kg/d): 4.49 ± 0.36 mg
Heart ([1]; all mice, 10 mg/kg/d): 101.2 ± 2.7 mg
gastrocnemius ([1]; all mice, 10 mg/kg/d): 50.8 ± 3.3 mg
BAT (brown adipose tissue) ([1]; all mice, 20 mg/kg/d): 43.3 ± 4.1 mg
EDL (extensor digitorum longus) ([1]; all mice, 20 mg/kg/d): 5.89 ± 0.31 mg
soleus ([1]; all mice, 20 mg/kg/d): 5.49 ± 0.34 mg
Heart ([1]; all mice, 20 mg/kg/d): 100.7 ± 3.8 mg
gastrocnemius ([1]; all mice, 20 mg/kg/d): 47.0 ± 2.6 mg
BAT (brown adipose tissue) ([1]; female mice, 10 mg/kg/d): 42.1 ± 4.6 mg
EDL (extensor digitorum longus) ([1]; female mice, 10 mg/kg/d): 6.45 ± 0.75 mg
soleus ([1]; female mice, 10 mg/kg/d): 4.23 ± 0.51 mg
Heart ([1]; female mice, 10 mg/kg/d): 94.4 ± 3.4 mg
gastrocnemius ([1]; female mice, 10 mg/kg/d): 47.5 ± 4.1 mg
BAT (brown adipose tissue) ([1]; female mice, 20 mg/kg/d): 32.6 ± 1.9 mg
EDL (extensor digitorum longus) ([1]; female mice, 20 mg/kg/d): 5.98 ± 0.47 mg
soleus ([1]; female mice, 20 mg/kg/d): 5.09 ± 0.52 mg
Heart ([1]; female mice, 20 mg/kg/d): 88.5 ± 4.6 mg
gastrocnemius ([1]; female mice, 20 mg/kg/d): 43.6 ± 4.2 mg
BAT (brown adipose tissue) ([1]; male mice, 10 mg/kg/d): 46.7 ± 4.9 mg
EDL (extensor digitorum longus) ([1]; male mice, 10 mg/kg/d): 6.59 ± 0.61 mg
soleus ([1]; male mice, 10 mg/kg/d): 4.74 ± 0.51 mg
Heart ([1]; male mice, 10 mg/kg/d): 107.4 ± 3.4 mg
gastrocnemius ([1]; male mice, 10 mg/kg/d): 53.8 ± 5.1 mg
BAT (brown adipose tissue) ([1]; male mice, 20 mg/kg/d): 53.9 ± 6.8 mg
EDL (extensor digitorum longus) ([1]; male mice, 20 mg/kg/d): 5.81 ± 0.42 mg
soleus ([1]; male mice, 20 mg/kg/d): 5.84 ± 0.45 mg
Heart ([1]; male mice, 20 mg/kg/d): 112.0 ± 4.1 mg
gastrocnemius ([1]; male mice, 20 mg/kg/d): 49.9 ± 3.0 mg
Δ body weight ([2]; all mice, 10 mg/kg/d): -6.36 ± 0.39 g
Δ fat mass ([2]; all mice, 10 mg/kg/d): -1.71 ± 0.15 g
Δ lean mass ([2]; all mice, 10 mg/kg/d): -5.11 ± 0.32 g
Average Δ body weight ([2]; all mice, 10 mg/kg/d): -146.1 ± 11.1 mg/day
Average Δ fat mass ([2]; all mice, 10 mg/kg/d): -38.3 ± 4.2 mg/day
Average Δ lean mass ([2]; all mice, 10 mg/kg/d): -125.8 ± -12.7 mg/day
Δ body weight ([2]; all mice, 20 mg/kg/d): -5.21 ± 0.39 g
Δ fat mass ([2]; all mice, 20 mg/kg/d): -1.59 ± 0.15 g
Δ lean mass ([2]; all mice, 20 mg/kg/d): -4.60 ± 0.28 g
Average Δ body weight ([2]; all mice, 20 mg/kg/d): -111.0 ± 9.4 mg/day
Average Δ fat mass ([2]; all mice, 20 mg/kg/d): -32.6 ± 3.0 mg/day
Average Δ lean mass ([2]; all mice, 20 mg/kg/d): -96.6 ± 6.4 mg/day
Δ body weight ([2]; female mice, 10 mg/kg/d): -6.19 ± 0.42 g
Δ fat mass ([2]; female mice, 10 mg/kg/d): -1.87 ± 0.22 g
Δ lean mass ([2]; female mice, 10 mg/kg/d): -3.76 ± 0.41 g
Average Δ body weight ([2]; female mice, 10 mg/kg/d): -137.4 ± 15.5 mg/day
Average Δ fat mass ([2]; female mice, 10 mg/kg/d): -41.4 ± 5.3 mg/day
Average Δ lean mass ([2]; female mice, 10 mg/kg/d): -121.3 ± 25.7 mg/day
Δ body weight ([2]; female mice, 20 mg/kg/d): -4.85 ± 0.55 g
Δ fat mass ([2]; female mice, 20 mg/kg/d): -1.71 ± 0.26 g
Δ lean mass ([2]; female mice, 20 mg/kg/d): -4.55 ± 0.37 g
Average Δ body weight ([2]; female mice, 20 mg/kg/d): -105.2 ± 13.1 mg/day
Average Δ fat mass ([2]; female mice, 20 mg/kg/d): -35.6 ± 5.0 mg/day
Average Δ lean mass ([2]; female mice, 20 mg/kg/d): -85.2 ± 9.1 mg/day
Δ body weight ([2]; male mice, 10 mg/kg/d): -6.515 ± 0.65 g
Δ fat mass ([2]; male mice, 10 mg/kg/d): -1.57 ± 0.21 g
Δ lean mass ([2]; male mice, 10 mg/kg/d): -5.55 ± 0.47 g
Average Δ body weight ([2]; male mice, 10 mg/kg/d): -153.5 ± 16.1 mg/day
Average Δ fat mass ([2]; male mice, 10 mg/kg/d): -37.4 ± 6.4 mg/day
Average Δ lean mass ([2]; male mice, 10 mg/kg/d): -129.7 ± 9.9 mg/day
Δ body weight ([2]; male mice, 20 mg/kg/d): -5.53 ± 0.57 g
Δ fat mass ([2]; male mice, 20 mg/kg/d): -1.48 ± 0.16 g
Δ lean mass ([2]; male mice, 20 mg/kg/d): -5.12 ± 0.38 g
Average Δ body weight ([2]; male mice, 20 mg/kg/d): -116.0 ± 13.7 mg/day
Average Δ fat mass ([2]; male mice, 20 mg/kg/d): -29.9 ± 3.5 mg/day
Average Δ lean mass ([2]; male mice, 20 mg/kg/d): -106.4 ± 8.5 mg/day
HR survival (FIG. 14) ([3]; 10 mg/kg/day vs. placebo): 0.57
HR survival (FIG. 14) [3, 5]: 1.32
HR survival (FIG. 14) ([3]; 20 mg/kg/day vs. placebo): 0.54
HR survival (FIG. 16) ([3]; 10 mg/kg/day vs. placebo): 0.60
HR survival (FIG. 16) [3, 5]: 1.26
HR survival (FIG. 16) ([3]; 20 mg/kg/day vs. placebo): 0.41
HR survival (FIG. 15) ([3]; 10 mg/kg/day vs. placebo): 0.49
HR survival (FIG. 15) [3, 5]: 1.24
HR survival (FIG. 15) ([3]; 20 mg/kg/day vs. placebo): 0.41
HR Progression from score 1 to score 2 (FIG. 17) ([4]; 10 mg/kg/day vs. placebo): 0.47
HR Progression from score 1 to score 3 (FIG. 19) ([4]; 10 mg/kg/day vs. placebo): 0.60
HR Progression from score 2 to score 3 (FIG. 18) ([4]; 10 mg/kg/day vs. placebo): 1.04
HR Progression from score 1 to score 2 (FIG. 17) ([4]; 20 mg/kg/day vs. placebo): 0.54
HR Progression from score 1 to score 3 (FIG. 19) ([4]; 20 mg/kg/day vs. placebo): 0.63
HR Progression from score 2 to score 3 (FIG. 18) ([4]; 20 mg/kg/day vs. placebo): 0.74
